Results on two substances are retold here after patent US20040234531A1, “Chimeric human leukocyte antigen and epitope-bearing molecules having immunosuppressant activity” (priority 2001, published 2004).

Assay [1] deals with lymph node cells from GAD65-immunized HLA-DR4 transgenic mice. The experiment in a line: Proliferation and cytokines of lymph node cells from HLA-DR4 transgenic mice immunized with p271-285 GAD65 peptide. It counts as cell-based, mouse. As for the experimental part:
(§1) FIG. 9A-C. Potency of human DEF molecules in activating murine specific T cells. (A) Lymph node cells (3×10^5) from HLA-DR4 transgenic mice immunized with p271-285 GAD65 peptide were cultured for five dats in the presence of spleen cells (2×10^5) from naive HLA-DR4 mice and 5, 10 or 15 μg/ml of GAD65 peptide or 0.05, 0.5 or 1 μg/ml of DEF-GAD65. (B) Using the same protocol as for (A), cells from mice immunized withp73-90 proinsulin peptide wee stimulated with the same doses of proinsulin peptide or DEF-Pi. […] The proliferative responses are expressed as Δcpm=specific cpm−background cpm.
(§2) HLA-DR*0401 +/+, Abb −/− mice ([…], Taconic, Germantown, N.Y.) expressthe α1β1 domains of HLA-DR*0401 linked to the α2β2 domains of I-E^d, and at the same time are deficient for endogenous MHC class II (1-A^b, I-E^b) molecules (Abb −/−).
(§3) Groups of five mice were immunized in the footpads with either 100 micrograms of p271-285 GAD65 peptide or p73-90 proinsulin peptide in Complete Freund's Adjuvant (“CFA”). Lymph nodes were harvested ten days later and cells from GAD65-immunized mice were stimulated in vitro with various doses of p271-285 synthetic peptide, DEF-GAD65 or empty DEF molecules. […] The amount of peptide carried by the human DEF molecules was normalized on a molar basis, and the immunopotency determined as described in Casares et al., 1999, 3. […]

Assay [2] has as its system lymph node cells from proinsulin-immunized HLA-DR4 transgenic mice. Put plainly: Proliferation and cytokines of lymph node cells from HLA-DR4 transgenic mice immunized with p73-90 proinsulin peptide. The format is cell-based, mouse. The method, then: as §1, §2, §3

As for “GAD65 peptide PRLIAFTSEHSHFSL (SEQ ID NO:10) (listed as Homo sapiens) [p271-285]”, the EC50 in assay [1] (cells from GAD65-immunized mice, read-out: Half-maximal proliferation of stimulated cells) is 1000 nM. Besides, the “cytokine production in culture supernatants” value in assay [1] (day 5, ELISA) was “also secreted IL-10”.

With “proinsulin peptide GAGSLQPLALEGSLQKRG (SEQ ID NO: 43) (listed as Homo sapiens) [p73-90]”, in assay [2] (cells from proinsulin-immunized mice, read-out: Half-maximal proliferation of stimulated cells), the EC50 turned out to be 2500 nM. Moreover, in assay [2] (day 5, ELISA), the “cytokine production in culture supernatants” value was “secreted IL-2 but not IL-10”.
